Reference: patent US7312358B2, “Pharmaceutically active sulfanilide derivatives” (Laboratoires Serono SA, priority 2000, dated 2007)

Columns and labels:
hOT receptor = biological target: T1, hOT receptor (Homo sapiens, UniProt P30559); assay: In vitro competition binding assay on hOT receptor with scintillating proximity assay; details: membranes from HEK293EBNA cells expressing hOT receptor; radiolabel [125I]-OVTA; SPA; read-out: Binding Affinity Human OT-R Ki
T1 construct: expressed in transfected cells; host or cells: HEK293EBNA cells (membranes)
T1 sequence (P30559 1-389): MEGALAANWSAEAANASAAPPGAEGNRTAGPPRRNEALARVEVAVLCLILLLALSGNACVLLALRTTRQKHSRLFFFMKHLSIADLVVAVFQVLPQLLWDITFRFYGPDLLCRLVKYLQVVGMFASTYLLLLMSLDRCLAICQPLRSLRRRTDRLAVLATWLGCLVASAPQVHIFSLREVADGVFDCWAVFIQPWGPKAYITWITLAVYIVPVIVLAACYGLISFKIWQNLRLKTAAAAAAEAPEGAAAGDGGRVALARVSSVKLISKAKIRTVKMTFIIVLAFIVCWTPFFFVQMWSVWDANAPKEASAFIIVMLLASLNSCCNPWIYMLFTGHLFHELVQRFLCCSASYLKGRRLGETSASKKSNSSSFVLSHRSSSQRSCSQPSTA
Description: a) In Vitro Competition Binding Assay on hOT Receptor with Scintillating Proximity Assay (Pharmaceutical Manufacturing International, 1992, p. 49-53 by Cook, N. D. et al)
This assays allows to determine the affinity of the test compounds for the OT receptor. Membranes from HEK293EBNA cells expressing the hOT receptor were resuspended in buffer containing 50 mM Tris-HCl, pH 7.4, 5 mM MgCl2 and 0.1% BSA (w/v). The membranes (2-4 μg) were mixed with 0.1 mg wheat-germ aglutinin (WGA) SPA bead (type A) and 0.2 nM of the radiolabel [^125I]-OVTA (OVTA being […] and is an analogue of OT for competition binding experiments). Non-specific binding was determined in the presence of 1 μM Oxytocin. The total assay volume was 100 μl. The plates (Corning (D NBS plate) were incubated at room temperature for 30 min and counted on a Mibrobeta plate counter. The tests compounds were used in concentrations of 30 μM, 10 μM, 1 μM, 300 nM, 100 nM, 10 nM, 1 nM, 100 pM, 10 pM. The competition binding data were analysed using the iterative, nonlinear, curve-fitting program, “Prism”.
The binding affinities to the oxytocin receptor of the sulfanilide derivatives claimed in the formula I were assessed using the above described in vitro biological assay. The values refer to the binding affinity (IC50; μM) of the example compounds according to formula I to the Oxytocin receptor. From the values shown in Table 1 it can be derived that said test compounds according to formula I do show a significant binding to the oxytocin receptor.

hOT-R = biological target: T2, hOT-R (Homo sapiens, UniProt P30559); assay: Inhibition of oxytocin mediated Ca2+-mobilization by FLIPR (HEK cells); format: cell-based; details: fluo-4, OT 40 nM
T2 construct: expressed in transfected cells; host or cells: HEK (Human Embryonic Kidney) cells
T2 sequence (P30559 1-389): T1 sequence (P30559 1-389)
Source text: c) Functional Assay No. 1: Inhibition of Oxytocitn Mediated Ca^2+-Mobilization by FLIPR (Fluorescent Imaging Plate Reader)
FLIPR is a machine for fluorescence imaging using a laser that is capable of illuminating a 96-well plate and a means of simultaneously reading each well thus enabling rapid measurements on a large number of samples.
This assay intends to show the inhibition of the OT/OT-R mediated calcium mobilisation—being necessary to cause uterine contractions—by using test compounds of formula (I).
Preparing the plates: FLIPR-plates were pre-coated with PLL (Poly-L-Lysine) 10 μg/ml+0.1% gelatine to attach the HEK (Human Embryonic Kidney) cells for 30 min up to 2 days at 37° C. The cells were plated out into 96-well plates (60000 cells/well).
Labelling with fluo-4: […] fluo-4 (fluorescent marker) were dissolved in 20 μl pluronic acid (20% in DMSO). The dissolved fluo-4 was then diluted in 10 ml DMEM (Dubecco's Minimal Essential Medium-F12 medium without FCS (Fetal Calf Serum). The medium was removed from the plates, followed by one wash with DNEM-F12 medium. Now, 100 μl of the DMEM-F12 medium containing fluo-4 were added and the cells incubated for 1.5-2 h (HEK-cells). The cells now contain the fluorescent marker.
Buffer: 145 mM NaCl, 5 mM KCl, 1 mM MgCl2, 10 mM Hepes, 10 mM Glucose, EGTA (Ethylene-bis oxyethylene nitrilo tetraacetic acid). Adjust to pH 7.4.
Performance of the assay: A minimum of 80 μl/well of antagonists (5×) in the above buffer (1×) were prepared (96-well plates). The antagonists were added to the well-plates at different concentrations (30 μM, 10 μM, 1 μM, 300 nM, 100 nM, 10 nM, 1 nM, 100 pM, 10 pM).
OT is added at a concentration of 40 nM.
The fluorescent marker being sensitive to the amount of Ca^2+ mobilized within the cell may be quantified by the FLIPR machine.
The activities of the sulfanilide derivatives according to formula I were assessed using the above described in vitro biological assay. The values refer to the capacity of the example compounds according to formula I to effectively antagonize oxytocin-induced intracellular Ca^2+-mobilization mediated by the oxytocin receptor.

COCCOCCOc1ccc(S(=O)(=O)N(CC(=O)N/N=C2\C(=O)Nc3ccccc32)c2ccc(Cl)cc2)cc1 [Example 61, N-(4-chlorophenyl)-4-[2-(2-methoxyethoxy)ethoxy]-N-{2-oxo-2-[(2Z)-2-(2-oxo-1,2-dihydro-3H-indol-3-ylidene)hydrazino]ethyl}benzenesulfonamide]
Ki (hOT receptor): 2.9 nM | IC50 (hOT-R): 6.9 nM

Cc1ccc(N(CC(=O)N/N=C2\C(=O)Nc3ccccc32)S(=O)(=O)c2ccc(CCC(N)=O)cc2)cc1 [Example 66, 3-{4-[(4-methyl{2-oxo-2-[(2Z)-2-(2-oxo-1,2-dihydro-3H-indol-3-ylidene)hydrazino]ethyl}anilino)sulfonyl]phenyl}propanamide]
Ki (hOT receptor): 3.4 nM | IC50 (hOT-R): 19 nM

COc1ccc(N(CC(=O)Nc2cccc3ccccc23)S(=O)(=O)c2ccccc2)cc1 [2-[Benzenesulfonyl-(4-methoxy-phenyl)-amino]-N-naphthalen-1-yl-acetamide]
IC50 (hOT-R): 363 nM

O=C(CN(c1ccc(Cl)cc1)S(=O)(=O)c1ccc(OCCCc2cccnc2)cc1)N/N=C1\C(=O)Nc2ccccc21 [Example 63, N-(4-chlorophenyl)-N-{2-oxo-2-[(2Z)-2-(2-oxo-1,2-dihydro-3H-indol-3-ylidene)hydrazino]ethyl}-4-[3-(3-pyridinyl)propoxy]benzenesulfonamide]
Ki (hOT receptor): 2.8 nM | IC50 (hOT-R): 17 nM

COC(=O)c1cccc2c1NC(=O)/C2=N\NC(=O)CN(c1ccc(Cl)cc1)S(=O)(=O)c1ccc(OCCCN(C)C)cc1 [Example 70, Methyl (3Z)-3-({[4-chloro({4-[3-(dimethylamino)propoxy]phenyl}sulfonyl)anilino]acetyl}hydrazono)-2-oxo-2,3-dihydro-1H-indole-7-carboxylate]
Ki (hOT receptor): 108 nM | IC50 (hOT-R): 393 nM

CCOc1ccc(S(=O)(=O)N(CC(=O)N/N=C2\C(=O)Nc3ccccc32)c2ccc(Cl)cc2)cc1 [Example 40, N-(4-chlorophenyl)-4-ethoxy-N-{2-oxo-2-[(2Z)-2-(2-oxo-1,2-dihydro-3H-indol-3-ylidene)hydrazino]ethyl}benzenesulfonamide]
Ki (hOT receptor): 0.4 nM | IC50 (hOT-R): 102 nM

COc1ccc(N(CC(=O)Nc2cccc(OC)c2)S(=O)(=O)c2ccccc2)cc1 [2-[Benzenesulfonyl-(4-methoxy-phenyl)-amino]-N-(3-methoxy-phenyl)-acetamide]
IC50 (hOT-R): 392 nM

COCCOc1ccc(S(=O)(=O)N(CC(=O)N/N=C2\C(=O)Nc3ccccc32)c2ccc(Cl)cc2)cc1 [Example 62, N-(4-chlorophenyl)-4-(2-methoxyethoxy)-N-{2-oxo-2-[(2Z)-2-(2-oxo-1,2-dihydro-3H-indol-3-ylidene)hydrazino]ethyl}benzenesulfonamide]
IC50 (hOT-R): 8 nM

CN(C)CCCNC(=O)CCc1ccc(S(=O)(=O)N(CC(=O)N/N=C2\C(=O)Nc3ccccc32)c2ccc(Cl)cc2)cc1 [Example 71, 3-{4-[(4-chloro{2-oxo-2-[(2Z)-2-(2-oxo-1,2-dihydro-3H-indol-3-ylidene)hydrazino]ethyl}anilino)sulfonyl]phenyll}-N-[3-(dimethylamino)propyl]propanamide]
Ki (hOT receptor): 0.7 nM | IC50 (hOT-R): 14 nM

Cc1ccc(N(CC(=O)NCc2ccc(Cl)cc2Cl)S(=O)(=O)c2ccc(C)cc2)cc1 [N-(2,4-Dichloro-benzyl)-2-[(toluene-4-sulfonyl)-p-tolyl-amino]-acetamide]
IC50 (hOT-R): 595 nM

CCOc1ccc(S(=O)(=O)N(CC(=O)N/N=C2/C(=O)Nc3ccccc32)c2ccccc2)cc1 [Example 2, 4-ethoxy-N-{2-oxo-2-[2-(2-oxo-1,2-dihydro-3H-indol-3-ylidene)hydrazino]-ethyl}-N-phenylbenzenesulfonamide]
melting point: 135.5 to 136.5 °C

Cc1ccc(N(CC(=O)N/N=C2/C(=O)Nc3ccccc32)S(=O)(=O)c2ccc(C(C)(C)C)cc2)cc1 [Example 28, 4-tert-Butyl-N-(4-methylphenyl)-N-{2-oxo-2-[(2E)-2-(2-oxo-1,2-dihydro-3H-indol-3-ylidene)hydrazino]ethyl}benzenesulfonamide]
melting point: 139 to 140 °C

CCCc1ccc(S(=O)(=O)N(CC(=O)N/N=C2/C(=O)Nc3ccccc32)c2ccc(C)cc2)cc1 [Example 29, N-(4-methylphenyl)-N-{2-oxo-2-[(2E)-2-(2-oxo-12-dihydro-3H-indol-3-ylidene)hydrazino]ethyl}-4-propylbenzenesulfonamide]
melting point: 198 to 199 °C

Cc1ccc(N(CC(=O)N/N=C2/C(=O)Nc3ccccc32)S(=O)(=O)c2ccc(Cl)cc2)cc1 [Example 8, 4-chloro-N-(4-methylphenyl)-N-{2-oxo-2-[2-(2-oxo-1,2-dihydro-3H-indol-3-ylidene)hydrazino]ethyl}benzenesulfonamide]
melting point: 234 to 235 °C

O=C(CN(c1ccc(Cl)cc1)S(=O)(=O)c1ccc(NCCN2CCOCC2)cc1)N/N=C1\C(=O)Nc2ccccc21 [Example 65, N-(4-chlorophenyl)-4-{[2-(4-morpholinyl)ethyl]amino}-N-{2-oxo-2-[(2Z)-2-(2-oxo-1,2-dihydro-3H-indol-3-ylidene)hydrazino]ethyl}benzenesulfonamide]
Ki (hOT receptor): 6.9 nM | IC50 (hOT-R): 49 nM

CCOc1ccc(S(=O)(=O)N(CC(=O)N/N=C2/C(=O)N(C)c3ccccc32)c2ccc(C)cc2)cc1 [Example 20, 4-ethoxy-N-{2-[2-(1-methyl-2-oxo-1,2-dihydro-3H-indol-3-ylidene)hydrazino]-2-oxoethyl}-N-(4-methylphenyl)benzenesulfonamide]
melting point: 109 to 110 °C

Cc1ccc(N(CC(=O)N/N=C2/C(=O)Nc3ccccc32)S(=O)(=O)c2ccc(-c3ccccc3)cc2)cc1 [Example 13, N-(4-methylphenyl)-N-{2-oxo-2-[2-(2-oxo-1.2-dihydro-3H-indol-3-ylidene)hydrazino]ethyl}[1,1′-biphenyl]-4-sulfonamide]
melting point: 246 to 247 °C

COc1ccc(S(=O)(=O)N(CC(=O)N/N=C2/C(=O)Nc3ccccc32)c2ccc(Cl)cc2)cc1OC [Example 27, N-(4-chlorophenyl)-3,4-dimethoxy-N-{2-oxo-2-[(2E)-2-(2-oxo-1,2-dihydro-3H-indol-3-ylidene)hydrazino]ethyl}benzenesulfonamide]
melting point: 132 to 133 °C

COc1ccc(N(CC(=O)Nc2cccc(Cl)c2C)S(=O)(=O)c2ccccc2)cc1 [2-[Benzenesulfonyl-(4-methoxy-phenyl)-amino]-N-(3-chloro-2-methyl-phenyl)-acetamide]
IC50 (hOT-R): 45 nM
